Test [1] concerns the target Cholinesterase (Homo sapiens, UniProt P06276).
Description: Concentration required to inhibit 50% of Butyrylcholinesterase obtained from human serum was determined in vitro
For test [2], the target named is Acetylcholinesterase (Homo sapiens, UniProt P22303).
Description: Concentration required to inhibit 50% of Acetylcholinesterase obtained from human erythrocytes was determined in vitro

Molecules are shown by their SMILES.

Cholinesterase, sequence (P06276 whole entry): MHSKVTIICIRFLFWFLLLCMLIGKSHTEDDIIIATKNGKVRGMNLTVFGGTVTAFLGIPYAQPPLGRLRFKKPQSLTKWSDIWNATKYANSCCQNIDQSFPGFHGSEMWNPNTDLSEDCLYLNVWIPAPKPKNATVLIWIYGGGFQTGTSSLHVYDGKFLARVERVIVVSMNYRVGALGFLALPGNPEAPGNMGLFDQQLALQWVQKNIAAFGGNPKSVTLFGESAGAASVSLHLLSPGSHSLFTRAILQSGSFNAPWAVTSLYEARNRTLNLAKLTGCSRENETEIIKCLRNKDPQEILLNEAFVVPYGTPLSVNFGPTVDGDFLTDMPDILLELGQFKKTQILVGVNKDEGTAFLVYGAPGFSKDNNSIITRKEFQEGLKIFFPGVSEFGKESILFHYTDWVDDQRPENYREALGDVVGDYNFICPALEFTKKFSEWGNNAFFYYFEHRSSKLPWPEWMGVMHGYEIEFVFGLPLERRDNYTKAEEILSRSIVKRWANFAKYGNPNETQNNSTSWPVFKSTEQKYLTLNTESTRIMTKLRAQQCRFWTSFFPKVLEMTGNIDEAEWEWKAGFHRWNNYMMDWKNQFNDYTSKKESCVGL
Acetylcholinesterase, sequence (P22303 whole entry): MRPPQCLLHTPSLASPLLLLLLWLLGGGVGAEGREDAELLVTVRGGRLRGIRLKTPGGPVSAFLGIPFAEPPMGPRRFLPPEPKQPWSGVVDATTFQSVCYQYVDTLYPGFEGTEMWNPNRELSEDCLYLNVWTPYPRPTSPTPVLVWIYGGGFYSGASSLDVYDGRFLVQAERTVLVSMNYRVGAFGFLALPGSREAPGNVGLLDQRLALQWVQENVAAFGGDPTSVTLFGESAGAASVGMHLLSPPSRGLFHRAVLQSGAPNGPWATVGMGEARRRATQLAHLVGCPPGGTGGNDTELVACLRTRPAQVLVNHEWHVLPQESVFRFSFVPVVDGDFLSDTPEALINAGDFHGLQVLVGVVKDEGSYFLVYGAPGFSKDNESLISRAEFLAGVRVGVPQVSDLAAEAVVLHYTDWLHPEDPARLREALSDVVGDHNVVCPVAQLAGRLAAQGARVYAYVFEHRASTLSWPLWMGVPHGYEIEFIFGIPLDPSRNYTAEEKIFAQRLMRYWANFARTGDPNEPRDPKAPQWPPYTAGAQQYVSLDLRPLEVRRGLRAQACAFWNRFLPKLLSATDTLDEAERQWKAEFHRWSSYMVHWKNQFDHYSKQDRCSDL

As to `O=C(CCC1CCN(Cc2ccccc2)CC1)c1ccc2[nH]c(-c3ccccc3)nc2c1`, the IC50 in test [1] came out at 890 nM; in test [2], 33 nM. As for `Cc1nc2cc(C(=O)CCC3CCN(Cc4ccccc4)CC3)ccc2[nH]1`, the IC50 is 6200 nM in test [1] and 12 nM in test [2]. On the same counts, the results for `Cc1nc2ccc(C(=O)CCC3CCN(Cc4ccccc4)CC3)cc2s1` are 3400 nM and 6.8 nM.

Turning to `O=C(CCC1CCN(Cc2ccccc2)CC1)c1ccccc1`, the IC50 in test [1] is 4300 nM. Take `CCn1c(C)nc2cc(C(=O)CCC3CCN(Cc4ccccc4)CC3)ccc21`: the figures for the IC50 in test [1] and in test [2] were 4200 nM and 4.3 nM, respectively. On the same counts, the results for `O=C(CCC1CCN(Cc2ccccc2)CC1)c1ccc2c(c1)OCCO2` are 4800 nM and 30 nM.

In general, IC50 refers to the concentration needed to halve the response being measured.

Values taken from ChEMBL document CHEMBL1128725, “Design and synthesis of 1-heteroaryl-3-(1-benzyl-4-piperidinyl)propan-1-one derivatives as potent, selective acetylcholinesterase inhibitors” (J Med Chem, 1995).
